# Source: patent publication EP1538164A1, “RGD targeting moiety its production and use” (Vectron Therapeutics AG, priority 2003, dated 2005)
# Positions of bridges follow the written chain, without caps; N, C: chain ends. Residues, ends and D or L forms follow the SMILES beside them.
# Assays:
# [1] = tested on: HUVEC; experiment: Competition of liposome binding by free competitors (HUVEC); set-up: species or system human
# Method: Fig. 1: Binding of carboxyfluorescein-labelled RGD-10 to HUVECs. Thin line - cells without peptide, bold line - cells incubated with CF-labelled RGD-10. Fig. 2: Titration of inhibition of RGD-10 binding by peptides RGD-10 or RGD-4C analyzed by cell ELISA. Fig. 3: Structure of lipopeptides consisting of a peptide ligand with an acetylated Nterminus, the doo spacer linked to a dipalmitoyl-glycero-succinyl-lysine anchor. Fig. 4: A) Binding of RGD10 liposomes to HUVEC or B16.F10. Liposomes containing the RGD10-LP or RGD10-LP3 lipopeptide at a conc. of 0.1 mol% (thin line), 1 mol% (normal line), or 5 mol% (bold line) were analyzed for binding to HUVECs or B16.F10 (marked with 0). Binding of liposomes lacking lipopeptides is indicated as dotted line. B.) Liposomes containing the RGD10LP3 lipopeptide at a conc. of 1 mol% were analyzed for binding to MeWo or A431 cells. Dotted line = cells alone, normal line = liposomes without lipopeptide, bold line, RGD10-LP3 liposomes. Fig. 5: Competition experiments. […] Thin line = cells alone, normal line = plus peptide or 5 doo, bold line = liposomes without competitor. Fig. 6: Cell binding and internalization of RGD-10-LP3 liposomes. Fluorescence microscopy analysis of binding of RGD10-LP3 liposomes or liposomes lacking lipopeptide (untargeted liposomes) to HUVECs at 4°C or 37°C. […] Fig. 7: Pharmacokinetic analysis of liposomes containing 1 mol% LP1, 1 mol% LP3, or 0.1 mol% LP3. Fig. 8: Antitumor effects of LP3-liposomes (Dox-LP3 liposomes) loaded with doxorubicin in comparison to untargeted liposomes (Dox liposomes) or free doxorubicin analyzed in a C26 murine colon carcinoma tumor model.
# (§1) Thus, binding to integrin-expressing cells is specifically mediated by the RGD peptide.
# [2] = tested on: B16.F10; experiment: Competition of liposome binding by free competitors (B16.F10); set-up: species or system murine; conditions: RGD10 LP1-containing liposomes
# Excerpt: as §1
# [3] = tested on: HUVEC; experiment: Direct binding of carboxyfluorescein-labelled RGD-10 to HUVEC; set-up: species or system human; conditions: synthetic carboxyfluorescein-labeled RGD-10 peptide, Fig. 1
# Method: Fig. 1: Binding of carboxyfluorescein-labelled RGD-10 to HUVECs. Thin line - cells without peptide, bold line - cells incubated with CF-labelled RGD-10. Fig. 2: Titration of inhibition of RGD-10 binding by peptides RGD-10 or RGD-4C analyzed by cell ELISA. Fig. 3: Structure of lipopeptides consisting of a peptide ligand with an acetylated Nterminus, the doo spacer linked to a dipalmitoyl-glycero-succinyl-lysine anchor. Fig. 4: A) Binding of RGD10 liposomes to HUVEC or B16.F10. Liposomes containing the RGD10-LP or RGD10-LP3 lipopeptide at a conc. of 0.1 mol% (thin line), 1 mol% (normal line), or 5 mol% (bold line) were analyzed for binding to HUVECs or B16.F10 (marked with 0). Binding of liposomes lacking lipopeptides is indicated as dotted line. B.) Liposomes containing the RGD10LP3 lipopeptide at a conc. of 1 mol% were analyzed for binding to MeWo or A431 cells. Dotted line = cells alone, normal line = liposomes without lipopeptide, bold line, RGD10-LP3 liposomes. Fig. 5: Competition experiments. […] Fluorescence microscopy analysis of binding of RGD10-LP3 liposomes or liposomes lacking lipopeptide (untargeted liposomes) to HUVECs at 4°C or 37°C. […] Fig. 8: Antitumor effects of LP3-liposomes (Dox-LP3 liposomes) loaded with doxorubicin in comparison to untargeted liposomes (Dox liposomes) or free doxorubicin analyzed in a C26 murine colon carcinoma tumor model. […]
# [4] = tested on: HDMEC; experiment: Peptide binding to HDMEC; set-up: species or system human; conditions: compared with RGD-4C oxidized in two steps
# Excerpt: For further analysis we selected 2C-RGD peptide RGD-10 ([…]). The RGD-10 peptide was synthesized with the sequence […], thus lacking the C-terminal aspartate residue and resulting in a neutral net charge. […] For these experiments RGD-4C was oxidized in a two-step process to obtain disulfide bonds between C1-C4 and C2-C3 described to be essential for high affinity binding (Assa-Munt, et al. (2001) Biochemistry 40: 2373-2378). Compared to RGD-4C, RGD-10 contains only 2 cysteine residues, which facilitates synthesis of oxidized peptides using a one-step oxidation reaction. Furthermore, RGD-10 contains two aromatic residues, which allows spectrophotometrical detection at 280 nm. […] Thus, RGD-10 binds with the same affinity to integrin-expressing cells as RGD-4C, however, is much simpler to produce.
# [5] = tested on: integrin-expressing cells; conditions: titration of competition of RGD-10 binding, cell ELISA, Fig. 2
# [6] = RGD10-LP3 liposomes (1 mol% lipopeptide), 100 µM competitor, Fig. 5
# [7] = RGD10 LP1-containing liposomes (Example 3)
SMILES,"inhibition of binding of liposomes to HUVEC [1, 6]","inhibition of binding of liposomes to HUVEC [1, 7]",inhibition of binding of liposomes to B16.F10 [2],binding to HUVEC [3],binding strength to HDMEC [4],IC50 [5] [nM]
"C[C@H](N)C(=O)N[C@H]1CSSC[C@@H](C(=O)NCC(=O)O)NC(=O)[C@H](Cc2ccccc2)NC(=O)[C@@H]2CSSC[C@H](NC(=O)[C@H](CC(=O)O)NC1=O)C(=O)N[C@@H](CCCNC(=N)N)C(=O)NCC(=O)N[C@@H](CC(=O)O)C(=O)N2 [RGD-4C, reference compound] (H-ACDCRGDCFCG-OH; disulfide 2-10, 4-8; N-terminus and C-terminus assumed)",completely inhibited,completely inhibited,completely inhibited,–,–,–
C[C@H](NC(=O)CN)C(=O)N[C@@H](CCCNC(=N)N)C(=O)N[C@@H](Cc1ccc(O)cc1)C(=O)N[C@H]1CSSC[C@@H](C(=O)N[C@@H](Cc2ccccc2)C(=O)N[C@@H](CC(=O)O)C(=O)NCC(=O)O)NC(=O)[C@H](CC(=O)O)NC(=O)CNC(=O)[C@H](CCCNC(=N)N)NC1=O [RGD-10] (H-GARYCRGDCFDG-OH; disulfide 5-9; N-terminus and C-terminus assumed),completely inhibited,completely inhibited,completely inhibited,Direct binding,comparable strength as RGD-4C,~200
